Laboratory results reported in patent US20040052799A1, “Nucleic acid and amino acid sequences relating to Helicobacter pylori for diagnostics and therapeutics” (Astra Aktiebolag, priority 1996, published 2004).
Read-outs that look alike come from different tables or passages of the source.

Legend:
[1] = Stability of ASA in solution; assay type: physicochemical
Description: ASA in 4 N HCl was prepared daily for use in Asd assays by partial neutralization with addition of 1.0 equivalent of […], with a resulting pH=1-2. The amount of ASA was determined enzymatically by complete reaction in the presence of excess NADP^+and phosphate. […] These observations are consistent with previous reports on the stability of ASA (Karsten et al., 1991, Biochim. Biophys. Acta 1077, 209-219). Assays were performed in the following buffer: 200 mM HEPES, 0.3 mM NADP^+, 30 mM NaH2PO4, 1.0 mM DTT, pH 7.5 or pH 8.0. ASA was used in the assay at concentrations of 5-165 μM by diluting the partially-neutralized ASA stock into the assay 10-200 fold, leading to a decrease in pH of 0.1 units or less. Reaction was initiated with the addition of enzyme to a final concentration of 3.5-70 nM.

[2] = molecular target: T1, H. pylori glutamate racemase (Helicobacter pylori, UniProt Q9ZLT0); experiment: Inactivation of glutamate racemase by L-serine-O-sulfate, single enzyme coupled assay; assay type: biochemical; conditions: 20 mM L-serine-O-sulfate, different incubation times, FIG. 7
T1 construct: made in house; host or cells: E. coli BL21(DE3) carrying pET-23-murI and pACYC-groE (GroES/GroEL co-expressed)
T1 sequence (Q9ZLT0 whole entry): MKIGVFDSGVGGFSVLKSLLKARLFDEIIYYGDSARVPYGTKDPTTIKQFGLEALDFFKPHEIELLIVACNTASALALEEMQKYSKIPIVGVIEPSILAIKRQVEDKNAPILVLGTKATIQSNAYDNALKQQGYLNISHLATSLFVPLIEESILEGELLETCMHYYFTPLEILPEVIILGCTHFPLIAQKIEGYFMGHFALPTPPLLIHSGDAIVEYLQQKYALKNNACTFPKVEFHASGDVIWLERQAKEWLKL
Description: In this assay, the conversion of D-glutamic acid to L-glutamic acid is coupled to the conversion of L-glutamic acid and NAD^+by L-glutamate dehydrogenase to 2-oxoglutarate, ammonia. The production of NADH is measured as an increase of absorbance at 340 nm (the reduction of NAD^+ to NADH) at 37° C. The standard assay mixture (adapted from Choi, S- Y, Esaki, N., Yoshimura, T., and Soda, K., 1991, Protein Expression and Purification 2, 90-93) contained 10 mM Tris-HCl, pH 7.5, 5 mM NAD+, 5 Units/ml L-glutamate dehydrogenase, varying concentrations of the substrate D-Glutamic Acid (0.063 mM to 250 mM), and the purified recombinant H. pylori enzyme glutamate racemase (1 μg to 50 μg). The reaction was started by the addition of either the substrate D-glutamic acid or the recombinant glutamate racemase after a preincubation at 37° C. for 5 minutes with all of the other assay ingredients. The change in absorbance at 340 nm was measured in a Spectra MAX 250. Initial velocities were derived from the initial slopes. […]
The H. pylori glutamate racemase was tested for inactivation with a sucuide inhibitor, L-serine-O sulfate, which is known to inhibit murI from E. coli. […] The initial velocity of purified recombinant H. pylroi murI protein was determined in the single enzyme coupled asssay following incubation with the inhibitor L-serine-O-sulfate (LSOS) at 20 mM for the times indicated on the x-axis. […]

H. pylori (strain AH244) = assay type: in vivo; conditions: BALB/c mice infected with strain AH244, 100 μg antigen + 10 μg CT orally, compared to control, FIGS. 3 and 4
E. coli Asd = molecular target: T2, E. coli Asd (Escherichia coli, UniProt P0A9Q9); experiment: Asd assay, reverse reaction, NADPH formation; assay type: biochemical; conditions: pH 7.5; read-out: Km for phosphate
T2 construct: made in house; host or cells: E. coli HMS174 pLysS, pET28b
T2 sequence (P0A9Q9 1-367): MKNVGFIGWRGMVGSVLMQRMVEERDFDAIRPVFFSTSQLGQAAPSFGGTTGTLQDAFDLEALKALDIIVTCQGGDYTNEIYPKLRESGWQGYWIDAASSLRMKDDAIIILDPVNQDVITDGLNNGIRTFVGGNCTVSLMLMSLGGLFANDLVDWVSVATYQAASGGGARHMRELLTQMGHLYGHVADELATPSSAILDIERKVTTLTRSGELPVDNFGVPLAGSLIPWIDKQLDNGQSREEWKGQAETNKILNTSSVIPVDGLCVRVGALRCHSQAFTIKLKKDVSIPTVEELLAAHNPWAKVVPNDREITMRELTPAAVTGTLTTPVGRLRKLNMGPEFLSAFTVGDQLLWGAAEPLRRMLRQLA
Description: (§1) The enzymatic activity of purified His-tagged H. pylori Asd (SEQ ID NO: 6545) was characterized by assaying the reverse reaction of phosphorylation of L-aspartate-β-semialdehyde (ASA) to L-p-aspartyl phosphate, with concomitant reduction of NADP^+ to NADPH. The formation of NADPH was detected by its absorbance, 340 nm, or by its fluorescence, excitation =340 nm, emission 455 nm.
(§2) ASA in 4 N HCl was prepared daily for use in Asd assays by partial neutralization with addition of 1.0 equivalent of […], with a resulting pH=1-2. The amount of ASA was determined enzymatically by complete reaction in the presence of excess NADP^+and phosphate. […] Assays were performed in the following buffer: 200 mM HEPES, 0.3 mM NADP^+, 30 mM NaH2PO4, 1.0 mM DTT, pH 7.5 or pH 8.0. ASA was used in the assay at concentrations of 5-165 μM by diluting the partially-neutralized ASA stock into the assay 10-200 fold, leading to a decrease in pH of 0.1 units or less. Reaction was initiated with the addition of enzyme to a final concentration of 3.5-70 nM.

H. pylori Asd = H. pylori Asd (Helicobacter pylori, UniProt Q9ZK28); experiment: Asd assay, reverse reaction, NADPH formation; conditions: read-out: Km for phosphate; pH 8.0
H. pylori Asd, sequence (Q9ZK28 whole entry): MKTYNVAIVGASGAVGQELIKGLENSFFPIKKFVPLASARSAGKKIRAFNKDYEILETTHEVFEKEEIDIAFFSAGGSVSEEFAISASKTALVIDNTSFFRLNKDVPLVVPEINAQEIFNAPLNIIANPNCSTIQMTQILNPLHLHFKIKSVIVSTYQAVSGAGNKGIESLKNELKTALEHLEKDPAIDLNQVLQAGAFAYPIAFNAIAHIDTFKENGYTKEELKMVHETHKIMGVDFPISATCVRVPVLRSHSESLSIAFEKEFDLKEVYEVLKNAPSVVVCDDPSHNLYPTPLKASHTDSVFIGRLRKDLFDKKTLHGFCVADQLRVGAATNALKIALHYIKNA
Description: as §1, §2

Molecule: N[C@@H](CC=O)C(=O)O [ASA, L-aspartate-β-semialdehyde]
- half-life ([1]; assay buffer, pH 7.7 (under assay conditions), read-out: t½ (converted)): 5 h
- time ASA found to be stable ([1]; pH 1.4): up to 48 hours

Molecule: N[C@@H](COS(=O)(=O)O)C(=O)O [L-Serine-O-Sulfate]
- inactivation of glutamate racemase by the inhibitor (residual initial velocity) [2]: readily inactivated

Molecule: lacZ: non-Helicobacter pylori control protein (β-galactosidase from E. coli) constructed with a hexa-HIS tag [reference compound]
- degree of colonization of the antrum (H. pylori (strain AH244)): higher Helicobacter colonization
- reduction and/or eradication of the H. pylori infection (therapeutic immunization effect) (H. pylori (strain AH244)): no eradication effect
- degree of colonization of the antrum (H. pylori (strain AH244); listed as LacZ): highest colonization in the antrum

Molecule: phosphate [reference compound]
- Km (E. coli Asd): 1300 µM
- Km (H. pylori Asd): 2100 µM
